# In US8933018B2, “Boron containing polybasic bacterial efflux pump inhibitors and therapeutic uses thereof” (priority 2011, dated 2015):
# Where two headings read alike, the source gives them in different places.
# Key:
# [1] = tested on: P. aeruginosa PAM3062, which overexpresses the MexAB-OprM efflux pump; format: in vivo, Pseudomonas aeruginosa; settings: neutropenic rats, lung, 1.5 hr IV infusion, 24 hours after start of treatment
# Description: Rats are made neutropenic by administration of a 75 mg/kg dose of cyclophosphamide 2 days prior to infection. Immediately prior to infection, rats are anesthetized with isoflurane. Lung infection is established by intratracheal instillation of ˜1×10^7 CFU/lung. P. aeruginosa PAM3062, which overexpresses the MexAB-OprM efflux pump, is used for infection. All treatments are initiated 4 hours after infection and are administered by 1.5 hr IV infusion twice daily. Rats are sacrificed 24 hours after the start of treatment; lungs are homogenized, serially diluted, and plated to determine colony counts.
# [2] = tested on: P. aeruginosa, PAM1723, overexpressing the MexAB-OprM efflux pump; format: cell-based, Pseudomonas aeruginosa; settings: lowest EPI concentration giving antibacterial activity with levofloxacin at 1/8 of its MIC, MHB, 20 h at 35° C.
# Summary of the method: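 Checkerboard microdilution in Mueller Hinton Broth, with EPI concentrations varied along one axis. The inoculum was 5 times 10^5 CFU/ml from early-log culture. Plates were incubated 20 h at 35° C, and growth was read at 650 nm and by visual inspection.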
Structure (SMILES),MPC8 (Minimum Potentiating Concentration) [2],other results
NCCN(CCN)C(=O)CC[C@H](N)C(=O)N[C@H](Cc1ccc(C(F)(F)F)cc1)C(=O)Nc1cccc(B(O)O)c1 [Compound 2],B (B = MPC8 of 2.5 μg/ml to less than 10 μg/mL.),Δlog CFU ([1]; levofloxacin 100 (50 BID) mg/kg + EPI 40 (20 BID) mg/kg 24 hr dose): −1.74
"NCCN(CCN)C(=O)CC[C@H](N)C(=O)N[C@H](CCc1ccc(C(F)(F)F)cc1)C(=O)Nc1ccc2c(c1)B(O)OC2 [Compound 6, (S)-2-amino-N5,N5-bis(2-aminoethyl)-N1-((R)-1-(1-hydroxy-1,3-dihydrobenzo[c][1,2]oxaborol-6-ylamino)-1-oxo-4-(4-(trifluoromethyl)phenyl)butan-2-yl)pentanediamide]",B (B = MPC8 of 2.5 μg/ml to less than 10 μg/mL.),Δlog CFU ([1]; levofloxacin 100 (50 BID) mg/kg + EPI 16 (8 BID) mg/kg 24 hr dose): −2.99
"NCCN(CCN)C(=O)CC[C@H](N)C(=O)N[C@H](CCc1ccc(C(F)(F)F)cc1)C(=O)Nc1cccc(B(O)O)c1 [Compound 14, 3-((R)-2-((S)-2-amino-5-(bis(2-aminoethyl)amino)-5-oxopentanamido)-4-(4-(trifluoromethyl)phenyl)butanamido)phenylboronic acid]",B (B = MPC8 of 2.5 μg/ml to less than 10 μg/mL.),Δlog CFU ([1]; levofloxacin 100 (50 BID) mg/kg + EPI 20 (10 BID) mg/kg 24 hr dose): −1.13
"CC1(C)OB(O)c2cc(NC(=O)[C@@H](Cc3ccc(C(F)(F)F)cc3)NC(=O)[C@@H](N)CCC(=O)N(CCN)CCN)ccc21 [Compound 20, (S)-2-Amino-N5,N5-bis(2-aminoethyl)-N1-((R)-1-(1-hydroxy-3,3-dimethyl-1,3-dihydrobenzo[c][1,2]oxaborol-6-ylamino)-1-oxo-3-(4-(trifluoromethyl)phenyl)propan-2-yl)pentanediamide]",A (A = MPC8 of less than 2.5 μg/mL.),Δlog CFU ([1]; levofloxacin 100 (50 BID) mg/kg + EPI 10 (5 BID) mg/kg 24 hr dose): −1.75
"CC1(C)OB(O)c2c1ccc(F)c2NC(=O)[C@@H](CCc1ccc(C(F)(F)F)cc1)NC(=O)[C@@H](N)CCC(=O)N(CCN)CCN [Compound 103, (S)-2-amino-N^5,N^5-bis(2-aminoethyl)-N^1-((R)-1-(6-fluoro-1-hydroxy-3,3-dimethyl-1,3-dihydrobenzo[c][1,2]oxaborol-7-ylamino)-1-oxo-4-(4-(trifluoromethyl)phenyl)butan-2-yl)pentanediamide]",B (B = MPC8 of 2.5 μg/ml to less than 10 μg/mL.),–
"CC1(C)OB(O)c2cc(NC(=O)[C@@H](Cc3ccc(C(F)(F)F)cc3)NC(=O)[C@@H](N)CCCNC(=O)C(CN)CN)ccc21 [Compound 104, (S)-2-amino-5-(3-amino-2-(aminomethyl)propanamido)-N-((R)-1-(1-hydroxy-3,3-dimethyl-1,3-dihydrobenzo[c][1,2]oxaborol-6-ylamino)-1-oxo-3-(4-(trifluoromethyl)phenyl)propan-2-yl)pentanamide]",B (B = MPC8 of 2.5 μg/ml to less than 10 μg/mL.),–
"CC1(C)OB(O)c2cc(C(=O)NC[C@@H](CCc3ccc(C(F)(F)F)cc3)NC(=O)[C@@H](N)CCC(=O)N(CCN)CCN)ccc21 [Compound 106, (S)-2-amino-N^5,N^5-bis(2-aminoethyl)-N^1-((R)-1-(1-hydroxy-3,3-dimethyl-1,3-dihydrobenzo[c][1,2]oxaborole-6-carboxamido)-4-(4-(trifluoromethyl)phenyl)butan-2-yl)pentanediamide]",B (B = MPC8 of 2.5 μg/ml to less than 10 μg/mL.),–
"CC1(C)OB(O)c2cc(NC[C@@H](CCc3ccc(C(F)(F)F)cc3)NC(=O)[C@@H](N)CCC(=O)N(CCN)CCN)ccc21 [Compound 107, (S)-2-amino-N^5,N^5-bis(2-aminoethyl)-N^1-((R)-1-(1-hydroxy-3,3-dimethyl-1,3-dihydrobenzo[c][1,2]oxaborol-6-ylamino)-4-(4-(trifluoromethyl)phenyl)butan-2-yl)pentanediamide]",A (A = MPC8 of less than 2.5 μg/mL.),–
"CC1(C)OB(O)c2cc(NC[C@@H](Cc3ccc(C(F)(F)F)cc3)NC(=O)[C@@H](N)CCC(=O)N(CCN)CCN)ccc21 [Compound 108, (S)-2-amino-N^5,N^5-bis(2-aminoethyl)-N^1-((R)-1-(1-hydroxy-3,3-dimethyl-1,3-dihydrobenzo[c][1,2]oxaborol-6-ylamino)-3-(4-(trifluoromethyl)phenyl)propan-2-yl)pentanediamide]",A (A = MPC8 of less than 2.5 μg/mL.),–
